Source: patent publication US6521669B1, “Hydroxystilbene compounds for reducing/inhibiting protein glycation” (Societe L'Oreal S.A., priority 1999, dated 2003)

Assays:
[1] = system: human hair proteins (keratins); experiment: Glycation of isolated human hair proteins (keratins) with ribose, glycation index (Experiment 2); format: biochemical; conditions: 50 mM ribose, 50° C., 14 days
Experimental: The glycation reaction was modelled in vitro in a biochemical model using human hair proteins (keratins) as a support for glycation with ribose. The test system consisted of isolated hair, incubated in a phosphate buffer (0.2M, pH=7.4) containing 50 mM of ribose (origin: Sigma). […] The assembly was incubated at 50° C. in the absence of light and air for 14 days. Control samples, incubated in the presence and absence of ribose, were tested in parallel. After incubation for 14 days, the incubation media were removed and the hair was washed with a solution containing 10 μM of guanidium chloride and then in water of MilliQ grade in order to remove all trace of free ribose. The hair was then placed in a solution containing 50% (v/v) of ethanol and 50 mM of DTT for 15 minutes at 37° C. After washing, the samples were placed in a solution containing 10 mM of 5,5′-dithiobis-2-nitrobenzoic acid. The absorbance relating to the free […] residues was measured at 415 nm. The samples were then washed in a 50% (v/v) ethanol solution and then heated for 30 minutes at 100° C. in a 2M hydrazine monohydrate solution (pH 9.4). After addition of a 1 mg/ml solution of phenylhydrazine in a 40% (v/v) acetic acid solution, the samples were incubated for [lacuna] 60° C. and the absorbance relating to the glycated proteins was measured at 390 nm. For each sample, the glycation index was evaluated by the ratio between the absorbance at 390 nm and the absorbance at 415 nm. [formula] The groups of data (control group and treated groups) were processed by means of a variance analysis (ANOVA), followed by a Dunett test.

bovine serum albumin = bovine serum albumin (Bos taurus, UniProt P02769); experiment: Glycation of bovine serum albumin with D-ribose, AGE fluorescence (Experiment 1); format: biochemical
Chain of bovine serum albumin (P02769 25-607): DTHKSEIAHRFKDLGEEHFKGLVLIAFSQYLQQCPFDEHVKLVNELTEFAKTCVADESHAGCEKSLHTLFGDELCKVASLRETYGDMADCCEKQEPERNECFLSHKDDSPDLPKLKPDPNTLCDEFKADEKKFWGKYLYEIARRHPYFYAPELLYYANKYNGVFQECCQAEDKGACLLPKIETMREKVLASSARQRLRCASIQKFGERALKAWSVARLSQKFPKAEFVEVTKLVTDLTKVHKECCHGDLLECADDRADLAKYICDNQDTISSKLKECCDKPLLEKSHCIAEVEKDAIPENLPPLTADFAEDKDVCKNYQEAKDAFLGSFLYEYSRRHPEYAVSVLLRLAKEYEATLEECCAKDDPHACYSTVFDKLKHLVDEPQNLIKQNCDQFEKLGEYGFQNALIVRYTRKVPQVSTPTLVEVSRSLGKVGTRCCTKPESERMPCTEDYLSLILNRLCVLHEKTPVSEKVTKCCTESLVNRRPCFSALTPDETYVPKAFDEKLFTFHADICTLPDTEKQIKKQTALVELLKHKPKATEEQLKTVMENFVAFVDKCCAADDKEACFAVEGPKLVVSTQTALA
Experimental: The glycation was evaluated by measuring the fluorescence of the AGEs at λem.=440 nm emitted by each sample after excitation at λex.=370 nm. The inhibition of glycation was visualized by the decrease in fluorescence compared with the sample treated with sugar alone.

inhibition at 1 µM (bovine serum albumin): 17% | inhibition at 10 µM (bovine serum albumin): 29.8%
Structure (SMILES): Oc1ccc(C=Cc2cc(O)cc(O)c2)cc1 [resveratrol, 3,5,4′-trihydroxystilbene]
% Inhibition ([1]; resveratrol 10^−4 M): 80% | % Inhibition ([1]; resveratrol 10^−5 M): 51% | % Inhibition ([1]; resveratrol 10^−6 M): 59% | % Inhibition ([1]; resveratrol 10^−7 M): 45%
